According to US20260130918A1, “TRANSCRIPTION FACTOR PFAP2-O5 INHIBITOR FOR PLASMODIUM FALCIPARUM, PHARMACEUTICAL COMPOSITION, AND DRUG FOR TREATING MALARIA RESISTANT TO ARTEMISININ AND ANALOG THEREOF” (priority 2023, published 2026):
Entries after “also recorded” stand apart in the source; their conditions may differ.

Columns and labels:
Plasmodium falciparum = experiment: 3-day SYBR Green I in vitro growth inhibition of Plasmodium falciparum; format: cell-based; settings: wild-type Plasmodium falciparum, 72 hours, read-out: IC50 of growth inhibition on in vitro culture of Plasmodium falciparum
Method: 100 μL of complete culture medium was added to a 96-well plate. 200 μL of a compound stock solution with a concentration of 200 μM was added to the first well. Gradient dilution (11 concentration gradients) was performed at a 1/2 ratio according to the doubling gradient dilution. Dihydroartemisinin (DHA) was used as a positive control, complete culture medium was used as a negative control, and red blood cells without Plasmodium falciparum or compounds were used as a background control.
100 μL of wild-type Plasmodium falciparum culture (1% parasitemia, 4% hematocrit) was accurately added to each well, so that finally, the parasitemia in each well was 0.5%, and the hematocrit was 2%. The final concentration gradients of the compound were 100 μM, 50 μM, 25 μM, 12.5 μM, 6.25 μM, 3.125 μM, 1.5625 μM, 0.78125 μM, 0.390625 μM, 0.195313 μM, and 0.097656 μM. […] After the incubation was completed, a fluorescence intensity was recorded on a microplate reader with an excitation wavelength of 485 nm and an emission wavelength of 535 nm. The inhibition rate of the small molecule inhibitor on the growth of Plasmodium falciparum was calculated based on the fluorescence intensity.
[formula] • where Fltreated, Flbackground, and Flcontrol represent the fluorescence intensity values of the candidate small molecule drug group, the red blood cell control group, and the untreated control group, respectively. […]

293T cells = experiment: 3-day CCK-8 cytotoxicity assay, 293T; format: cell-based, human; settings: 72 hours
Method: (§1) Mammalian 293T and HepG2 cells were cultured and passaged, trypsinized, and resuspended in DMEM. The cells were counted using a hemocytometer and diluted to 10^5 cells/mL. The cell suspension was evenly added to a 96-well plate, with 100 μL per well. After the cells were subjected to attachment culture in a 37° C. incubator (5% CO2) for 24 hours, the inhibitors of the corresponding concentrations were added. Gradient dilution (11 concentration gradients) was performed at a 1/2 ratio according to the doubling gradient dilution. Complete culture medium was used as a negative control, and DMEM was used as a background control. After the culture in a 37° C. incubator (5% CO2) for 72 hours, 10 µL of CCK8 reagent was added to each well. The plate was incubated in a 37° C. incubator (5% CO2) for 1 hour. The absorbance at a 450 nm wavelength was read by a microplate reader, and a survival rate was calculated based on the absorbance.
(§2) [formula] • where Abtreated, Abbackground, and Abcontrol represent the absorbance values of the small molecule drug group, the DMEM control group, and the untreated control group, respectively. The inhibition rate of the drug was calculated based on the survival rate at different concentrations, and the growth inhibition curve was summarized as inhibition rate-drug concentration. The IC50 was calculated using SPSS 18.0 software.

HepG2 cells = experiment: 3-day CCK-8 cytotoxicity assay, HepG2; format: cell-based, human; settings: HepG2, 72 hours
Method: as §1, §2

[1] = test system: PfAP2-O5 target genes (invasion genes); experiment: RNA-seq analysis of invasion gene expression after inhibitor treatment; format: cell-based, Plasmodium falciparum; settings: wild-type strain treated with 1 M triazoloquinoline derivative for one life cycle
Method: Wild-type and pfap2-o5 conditional knockdown Plasmodium falciparum strains were treated with the triazoloquinoline derivative represented by formula (I), respectively. After strict synchronization of the Plasmodium falciparum strains, […] triazoloquinoline derivative was added one life cycle in advance. After one life cycle, the ring (10-15 hours), trophozoite (28-32 hours), and schizont (40-44 hours) stage cultures of the wild-type and pfap2-o5 conditional knockdown Plasmodium falciparum strains treated with the triazoloquinoline derivative were collected. Total RNA was purified using the Direct-zol RNA kit, strand-specific RNA sequencing libraries were then prepared using KAPA mRNA beads, and the RNA was fragmented. The libraries were sequenced on the Illumina HiSeq X Ten system, and the differential gene expression between the two Plasmodium falciparum strains after inhibitor treatment was analyzed.

[2] = Liver microsomal metabolism, mouse; format: in vitro ADME; parameters: half-life / CLint scaled: dose or concentration left out as unconfirmed
Method: (§3) In the microsomal metabolism assay, the inhibitor was incubated with liver microsomes from different species; the reaction was terminated at different time points; the remaining amount of the inhibitor in the samples at each time point was determined using LC-MS/MS. The percentage of parent drug remaining was calculated, and the hepatic intrinsic clearance CLinit(liver) was finally obtained. Testosterone was used as a control in this study to verify the reliability of the experimental system. The detailed procedures were as follows:
(§4) The incubation system consisted of 0.1 M Tris-HCl buffer (pH 7.4), 1 mM MgCl2, 1 mM NADPH (Nicotinamide Adenine Dinucleotide Phosphate), and 0.5 mg/mL microsomes, and the final reaction volume was 200 μL. […] inhibitor and testosterone were pre-incubated with liver microsomes from different species in a 37° C. water bath for 5 minutes. 100 μL of NADPH was added to initiate the reaction. 400 μL of stop solution was added to terminate the reaction at time points of 0 minutes, 5 minutes, 15 minutes, 30 minutes, 45 minutes, and 60 minutes. 40 μL of internal standard was added, and the mixture was vortexed for 5 minutes and centrifuged at […] and 4° C. for 5 minutes. 100 μL of the supernatant was taken and diluted with 100 μL of water for injection and analysis. The retention time of the compound and the internal standard, chromatogram acquisition, and chromatogram integration were processed by Analyst 1.6.3 software. The compound was subjected to linear regression with a weighting coefficient of 1/X^2 to calculate the concentration at each time point. The natural logarithm of the percentage remaining at each time point was linearly regressed against the incubation time to calculate the in vitro elimination rate constant k. The half-life (T1/2) and hepatic intrinsic clearance CLint(liver) of the test article were calculated according to the following formula.
(§5) hepatic microsomal clearance CLint(mic)=0.693/half-life/mg microsomal protein per mL; hepatic intrinsic clearance CLint(liver)=hepatic microsomal clearance×mg microsomal protein/gram of liver×liver weight-to-body weight ratio. The liver weight-to-body weight ratios of mice, rats, and humans were […], respectively; the average value of mg microsomal protein/gram of liver in different species was 45.

[3] = Liver microsomal metabolism, rat; format: in vitro ADME; parameters: half-life / CLint scaled: dose or concentration left out as unconfirmed
Method: as §3, §4, §5

[4] = Liver microsomal metabolism, human; format: in vitro ADME; parameters: half-life / CLint scaled: dose or concentration left out as unconfirmed
Method: as §3, §4, §5

[5] = test system: artemisinin-resistant Plasmodium falciparum strains; experiment: Ring-stage survival assay against resistant Plasmodium falciparum strains; format: cell-based; settings: in combination with DHA, 6 hours exposure, then 66 hours culture
Method: This experiment aimed to evaluate the killing effect of the triazoloquinoline derivative as a combination drug against drug-resistant Plasmodium falciparum strains using the gold-standard drug resistance assay. The detailed implementation procedures were as follows: • 1. Culture of Plasmodium falciparum when the parasitemia was greater than 4% and most parasites were at the ring (R) stage, the culture was synchronized with Sorbitol for 10 minutes and vortexed for 5 seconds; • 2. Synchronization with sorbitol was repeated 30-48 hours later (depending on the parasite stage); • 3. Smear test under microscope after approximately 30 hours of culture: if the proportion of the mature schizont (S) stage (10-12 merozoites) was greater than 0.5%, the operation proceeded to procedure 4; if the proportion of the mature S stage (10-12 merozoites) was less than 0.5%, procedure 2 was repeated; • 4. […] After the culture was mixed well, approximately 200 μL of the culture was pipetted and centrifuged for smear test under microscope (this could be done approximately 10 minutes in advance); the parasitemia was quickly calculated (must be greater than 0.5%); • 7. […] After 66 hours of the culture, smear test under microscope was performed to calculate the parasitemia, and the survival rate was calculated.

In the case of `Cc1cccc(-c2nnc3c4ccccc4nc(N4CCN(C(=O)Cc5ccccc5)CC4)n23)c1` [triazoloquinoline derivative], the IC50 (Plasmodium falciparum) is reported as 2.63 µM, the “cytotoxicity to mammalian cells (293T)” value (293T cells) is reported as “low cytotoxicity; also recorded: almost no toxicity” and the “cytotoxicity to mammalian cells (HepG2)” value (HepG2 cells) is reported as “low cytotoxicity; also recorded: almost no toxicity”. For the same compound, the “decrease of expression levels of merozoite surface structural protein family genes (mRNA level)” value [1] was “more than 1.5 fold”, the CLint scaled ([2]; liver microsomes, pH 7.4, mouse, hepatic intrinsic clearance scaled from microsomes) was 342 mL/min/kg and the clearance classification ([2]; mouse liver microsomes) was “high-clearance compound”. It also gave a k ([2]; mouse liver microsomes, 0.5 mg/mL, NADPH) of 0.0432 min⁻¹, a half-life ([2]; pH 7.4, mouse liver microsomes) of 16 min and a CLint scaled ([3]; liver microsomes, pH 7.4, rat, hepatic intrinsic clearance scaled from microsomes) of 59.4 mL/min/kg. For the same compound, the half-life ([3]; pH 7.4, rat liver microsomes) was 42 min, the clearance classification ([3]; rat liver microsomes) was “moderate-clearance compound” and the k ([3]; rat liver microsomes, 0.5 mg/mL, NADPH) was 0.0165 min⁻¹. For the same compound, the clearance classification ([4]; human liver microsomes) was “moderate-clearance compound”, the k ([4]; human liver microsomes, 0.5 mg/mL, NADPH) was 0.0053 min⁻¹ and the CLint scaled ([4]; liver microsomes, pH 7.4, human, hepatic intrinsic clearance scaled from microsomes) was 8.54 mL/min/kg. For the same compound, the half-life ([4]; pH 7.4, human liver microsomes) was 131 min and the “killing effect against artemisinin-resistant strains (ring-stage survival)” value [5] was “more effectively kill”.
